# In patent US20140057908A1, “Method of Treating Cancer” (Exelixis, Inc., priority 2010, published 2014):
# Columns and labels:
# xenograft tumor models = test: xenograft tumor models; conditions: in vivo
# [1] = tested on: castration-resistant prostate cancer (CRPC) with bone metastases; test: adaptive phase 2 trial (NCT00940225), case studies of the first three CRPC patients with bone metastases; assay type: in vivo, human; conditions: for Bone scan (best response) / PSA (best response) / tALP (best response) / Hemoglobin (best response): 100 mg dose; for Hemoglobin (best response): change from baseline; for PSA: Week 18
# Text: All patients provided informed consent before study screening.
# [2] = tested on: pancreatic neuroendocrine tumor; test: murine pancreatic neuroendocrine tumor model; conditions: mouse, in vivo
# [3] = gravimetric vapor sorption (GVS) study; assay type: physicochemical; conditions: crystalline form; 25° C. and 90% humidity
# Protocol: A gravimetric vapor sorption (GVS) study was run using a standard procedure. Samples were run on a dynamic vapor sorption analyzer (Surface Measurement Systems) running DVSCFR software. Sample sizes were typically 10 mg. A moisture adsorption desorption isotherm was performed as outlined below. The standard isotherm experiment, performed at 25° C., is a two-cycle run, starting at 40% RH, increasing humidity to 90% RH, decreasing humidity to 0% RH, increasing humidity again to 90% RH, and finally decreasing humidity to 0% RH in 10% RH intervals.
structure (smiles),measurement,setting,value
"COc1cc2nccc(Oc3ccc(NC(=O)C4(C(=O)Nc5ccc(F)cc5)CC4)cc3)c2cc1OC [Compound 1, N-(4-{[6,7-bis(methyloxy)quinolin-4-yl]oxy}phenyl)-N′-(4-fluorophenyl)cyclopropane-1,1-dicarboxamide]",effect on tumors in xenograft tumor models,xenograft tumor models,causes tumor regression
same,Bone scan (best response),[1]; Patient 1,Complete
same,PSA (best response),[1]; Patient 1,−78%
same,tALP (best response),[1]; Patient 1,−77%
same,Hemoglobin (best response),[1]; Patient 1,+1.4 g/dL
same,CT scan response,"[1]; Patient 1, Week 6",partial response (PR)
same,decrease in measurable target lesions (CT scan),"[1]; Patient 1, Week 6",33%
same,PSA,"[1]; Patient 1, baseline 430 ng/mL",93.5 ng/mL
same,PSA (best response),[1]; Patient 2,+61%
same,tALP (best response),[1]; Patient 2,−6%
same,Hemoglobin (best response),[1]; Patient 2,+1.8 g/dL
same,decrease in target lesions (CT scan),"[1]; Patient 2, Week 6",13%
same,Bone scan (best response),[1]; Patient 3,Near resolution
same,PSA (best response),[1]; Patient 3,−57%
same,tALP (best response),[1]; Patient 3,−77%
same,Hemoglobin (best response),[1]; Patient 3,+2.2 g/dL
same,decrease in measurable target lesions (CT scan),"[1]; Patient 3, Week 6",43%
same,PSA,"[1]; Patient 3, 2.4 ng/mL at screening",1.2 ng/mL
same,"bone lesions, summary of three metastatic CRPC patients",[1]; all three patients,near complete resolution of bone lesions
same,"uptake of radiotracer on bone scan, summary",[1]; all three patients,striking decrease in uptake of radiotracer on bone scan
same,overall survival,[2],substantially improves overall survival
same,tumor invasiveness and metastasis,[2],significantly reduces tumor invasiveness and metastasis
"COc1cc2c(Oc3ccc(NC(=O)C4(C(=O)Nc5ccc(F)cc5)CC4)cc3F)ccnc2cc1OCCCN1CCOCC1 [Compound 2, N-[3-fluoro-4-({6-(methyloxy)-7-[(3-morpholin-4-ylpropyl)oxy]quinolin-4-yl}oxy)phenyl]-N′-(4-fluorophenyl)cyclopropane-1,1-dicarboxamide]",effect on tumors in xenograft tumor models,xenograft tumor models,causes tumor regression
same,weight gain (GVS),[3],2.5%
same,overall survival,[2],substantially improves overall survival
same,tumor invasiveness and metastasis,[2],significantly reduces tumor invasiveness and metastasis
